Measurements taken from the NIST ThermoML archive (doi:10.1016/j.jct.2006.01.015).
± gives the expanded uncertainty stated by the source.

Experiment: xn = mol fraction of the nth substance listed
Details: 101 kPa, Liquid

CC#N [acetonitrile] + CN(C)C=O
mass density [kg/m3]
Details	293.15 K	298.15 K	303.15 K	308.15 K	313.15 K	318.15 K
x1 = 0.0654	942 ± 0.9	937.5 ± 0.9	933 ± 1	928.6 ± 1	924.1 ± 1	919.6 ± 1.1
x1 = 0.1303	934.6 ± 0.9	930.1 ± 0.9	925.6 ± 1	921.2 ± 1	916.7 ± 1	912.2 ± 1.1
x1 = 0.1912	927.4 ± 0.9	922.9 ± 0.9	918.4 ± 0.9	914 ± 1	909.4 ± 1	904.9 ± 1.1
x1 = 0.2586	919 ± 0.9	914.5 ± 0.9	909.9 ± 0.9	905.5 ± 1	900.9 ± 1	896.4 ± 1.1
x1 = 0.3204	910.9 ± 0.8	906.3 ± 0.9	901.7 ± 0.9	897.2 ± 1	892.6 ± 1	888.1 ± 1
x1 = 0.3851	902 ± 0.8	897.4 ± 0.9	892.7 ± 0.9	888.2 ± 1	883.6 ± 1	879 ± 1
x1 = 0.4596	891.2 ± 0.8	886.5 ± 0.9	881.8 ± 0.9	877.2 ± 0.9	872.5 ± 1	867.9 ± 1
x1 = 0.5125	883.1 ± 0.8	878.4 ± 0.8	873.6 ± 0.9	869 ± 0.9	864.2 ± 1	859.5 ± 1
x1 = 0.5925	870 ± 0.8	865.2 ± 0.8	860.4 ± 0.9	855.7 ± 0.9	850.9 ± 1	846.1 ± 1
x1 = 0.6402	861.7 ± 0.8	856.9 ± 0.8	852 ± 0.9	847.3 ± 0.9	842.5 ± 0.9	837.6 ± 1
x1 = 0.6899	852.6 ± 0.8	847.8 ± 0.8	842.9 ± 0.9	838.1 ± 0.9	833.2 ± 0.9	828.3 ± 1
x1 = 0.731	844.7 ± 0.8	839.8 ± 0.8	834.9 ± 0.8	830 ± 0.9	825.1 ± 0.9	820.2 ± 1
x1 = 0.7736	836.1 ± 0.8	831.1 ± 0.8	826.1 ± 0.8	821.2 ± 0.9	816.3 ± 0.9	811.4 ± 1
x1 = 0.8522	818.9 ± 0.7	813.9 ± 0.8	808.9 ± 0.8	803.9 ± 0.9	798.9 ± 0.9	793.9 ± 0.9
x1 = 0.9359	798.9 ± 0.7	793.8 ± 0.7	788.7 ± 0.8	783.6 ± 0.8	778.5 ± 0.9	773.4 ± 0.9
x1 = 1	782.1 ± 0.7	776.8 ± 0.7	771.5 ± 0.8	766.3 ± 0.8	761 ± 0.8	755.7 ± 0.9

NC=O [formamide] + CC#N
mass density [kg/m3]
Details	293.15 K	298.15 K	303.15 K	308.15 K	313.15 K	318.15 K
x2 = 0	1133 ± 1.2	1129 ± 1.2	1125 ± 1.2	1121 ± 1.3	1117 ± 1.3	1113 ± 1.4
x2 = 0.0764	1104.3 ± 1.1	1099.7 ± 1.2	1095.1 ± 1.2	1090.5 ± 1.2	1085.9 ± 1.3	1081.3 ± 1.3
x2 = 0.161	1073.2 ± 1.1	1068.1 ± 1.1	1063 ± 1.2	1057.9 ± 1.2	1052.8 ± 1.2	1047.7 ± 1.3
x2 = 0.2485	1041.1 ± 1	1035.7 ± 1.1	1030.3 ± 1.1	1024.7 ± 1.2	1019.3 ± 1.2	1013.9 ± 1.2
x2 = 0.2976	1022.9 ± 1	1017.3 ± 1	1011.7 ± 1.1	1006.1 ± 1.1	1000.5 ± 1.2	994.9 ± 1.2
x2 = 0.3444	1005.4 ± 1	999.7 ± 1	994 ± 1.1	988.3 ± 1.1	982.6 ± 1.1	976.9 ± 1.2
x2 = 0.412	980.1 ± 1	974.3 ± 1	968.5 ± 1	962.7 ± 1.1	956.9 ± 1.1	951.1 ± 1.1
x2 = 0.4728	957.8 ± 0.9	951.9 ± 1	946 ± 1	940.2 ± 1	934.3 ± 1.1	928.3 ± 1.1
x2 = 0.5336	935.9 ± 0.9	930 ± 0.9	924.1 ± 1	918.2 ± 1	912.3 ± 1	906.4 ± 1.1
x2 = 0.5862	917.2 ± 0.9	911.3 ± 0.9	905.4 ± 0.9	899.6 ± 1	893.7 ± 1	887.8 ± 1.1
x2 = 0.6388	898.9 ± 0.8	893 ± 0.9	887.1 ± 0.9	881.3 ± 1	875.4 ± 1	869.5 ± 1
x2 = 0.6994	878 ± 0.8	872.2 ± 0.9	866.4 ± 0.9	860.6 ± 0.9	854.8 ± 1	849 ± 1
x2 = 0.7554	859.1 ± 0.8	853.4 ± 0.8	847.7 ± 0.9	842 ± 0.9	836.3 ± 0.9	830.4 ± 1
x2 = 0.8143	839.6 ± 0.8	834 ± 0.8	828.1 ± 0.8	822.6 ± 0.9	817 ± 0.9	811.4 ± 1
x2 = 0.8754	820 ± 0.7	814.5 ± 0.8	809 ± 0.8	803.5 ± 0.9	798 ± 0.9	792.5 ± 0.9
x2 = 0.9398	800.1 ± 0.7	794.7 ± 0.8	789.2 ± 0.8	783.8 ± 0.8	778.4 ± 0.9	773 ± 0.9

CNC(C)=O [N-methylacetamide] + CC#N
mass density [kg/m3]
Details	293.15 K	298.15 K	303.15 K	308.15 K	313.15 K	318.15 K
x2 = 0	958.4 ± 0.9	954.2 ± 1	950.1 ± 1	945.9 ± 1	941.7 ± 1.1	937.6 ± 1.1
x2 = 0.0637	951.5 ± 0.9	947.2 ± 1	942.9 ± 1	938.6 ± 1	934.3 ± 1.1	930 ± 1.1
x2 = 0.1232	944.8 ± 0.9	940.3 ± 0.9	935.9 ± 1	931.4 ± 1	927 ± 1.1	922.6 ± 1.1
x2 = 0.1926	936.5 ± 0.9	931.9 ± 0.9	927.3 ± 1	922.8 ± 1	918.2 ± 1.1	913.7 ± 1.1
x2 = 0.2665	927.2 ± 0.9	922.5 ± 0.9	917.8 ± 1	913.1 ± 1	908.4 ± 1	903.7 ± 1.1
x2 = 0.3244	919.5 ± 0.9	914.7 ± 0.9	909.9 ± 1	905.1 ± 1	900.3 ± 1	895.5 ± 1.1
x2 = 0.3702	913.2 ± 0.9	908.3 ± 0.9	903.4 ± 0.9	898.5 ± 1	893.6 ± 1	888.7 ± 1.1
x2 = 0.4365	903.5 ± 0.8	898.5 ± 0.9	893.5 ± 0.9	888.5 ± 1	883.5 ± 1	878.5 ± 1
x2 = 0.4925	894.7 ± 0.8	889.6 ± 0.9	884.5 ± 0.9	879.4 ± 1	874.3 ± 1	869.3 ± 1
x2 = 0.5412	886.6 ± 0.8	881.4 ± 0.9	876.2 ± 0.9	871.1 ± 0.9	865.9 ± 1	860.8 ± 1
x2 = 0.58	879.8 ± 0.8	874.6 ± 0.9	869.4 ± 0.9	864.2 ± 0.9	859 ± 1	853.8 ± 1
x2 = 0.6301	870.6 ± 0.8	865.3 ± 0.8	860.1 ± 0.9	854.9 ± 0.9	849.6 ± 1	844.4 ± 1
x2 = 0.6766	861.6 ± 0.8	856.3 ± 0.8	851 ± 0.9	845.7 ± 0.9	840.4 ± 0.9	835.1 ± 1
x2 = 0.7613	843.8 ± 0.8	838.4 ± 0.8	833 ± 0.8	827.7 ± 0.9	822.3 ± 0.9	816.9 ± 1
x2 = 0.8305	827.8 ± 0.7	822.4 ± 0.8	817 ± 0.8	811.6 ± 0.9	806.2 ± 0.9	800.8 ± 0.9
x2 = 0.9203	804.8 ± 0.7	799.5 ± 0.8	794.2 ± 0.8	788.8 ± 0.8	783.4 ± 0.9	778 ± 0.9

CC(=O)N(C)C [N,N-dimethylethanamide] + CC#N
mass density [kg/m3]
Details	293.15 K	298.15 K	303.15 K	308.15 K	313.15 K	318.15 K
x2 = 0	941 ± 0.9	936.5 ± 0.9	932 ± 1	927.6 ± 1	923.1 ± 1	918.6 ± 1.1
x2 = 0.0815	934.2 ± 0.9	929.7 ± 0.9	925.2 ± 1	920.7 ± 1	916.2 ± 1	911.7 ± 1.1
x2 = 0.1674	926.3 ± 0.9	921.8 ± 0.9	917.3 ± 0.9	912.8 ± 1	908.3 ± 1	903.9 ± 1.1
x2 = 0.2386	919.2 ± 0.9	914.7 ± 0.9	910.2 ± 0.9	905.7 ± 1	901.2 ± 1	896.8 ± 1.1
x2 = 0.3133	911.2 ± 0.8	906.7 ± 0.9	902.2 ± 0.9	897.7 ± 1	893.2 ± 1	888.8 ± 1
x2 = 0.3689	904.8 ± 0.8	900.3 ± 0.9	895.8 ± 0.9	891.3 ± 1	886.8 ± 1	882.4 ± 1
x2 = 0.4223	898.3 ± 0.8	893.8 ± 0.9	889.3 ± 0.9	884.8 ± 0.9	880.3 ± 1	875.8 ± 1
x2 = 0.4722	891.8 ± 0.8	887.3 ± 0.9	882.7 ± 0.9	878.2 ± 0.9	873.7 ± 1	869.2 ± 1
x2 = 0.5387	882.5 ± 0.8	877.9 ± 0.8	873.3 ± 0.9	868.8 ± 0.9	864.2 ± 1	859.7 ± 1
x2 = 0.581	876.1 ± 0.8	871.5 ± 0.8	866.9 ± 0.9	862.3 ± 0.9	857.7 ± 1	853.1 ± 1
x2 = 0.6379	866.9 ± 0.8	862.2 ± 0.8	857.6 ± 0.9	852.9 ± 0.9	848.3 ± 1	843.6 ± 1
x2 = 0.6794	859.7 ± 0.8	855 ± 0.8	850.2 ± 0.9	845.5 ± 0.9	840.8 ± 0.9	836.1 ± 1
x2 = 0.7236	851.5 ± 0.8	846.7 ± 0.8	841.9 ± 0.9	837.1 ± 0.9	832.3 ± 0.9	827.5 ± 1
x2 = 0.8071	833.9 ± 0.7	829 ± 0.8	824.1 ± 0.8	819.2 ± 0.9	814.3 ± 0.9	809.4 ± 1
x2 = 0.8776	817 ± 0.7	812 ± 0.8	807 ± 0.8	802 ± 0.8	797 ± 0.9	792 ± 0.9
x2 = 0.9424	799.4 ± 0.7	794.3 ± 0.7	789.2 ± 0.8	784.1 ± 0.8	779 ± 0.9	773.9 ± 0.9
